Reference: patent US20240191187A1, “MEDIA AND METHODS FOR GROWING MAMMARY ORGANOIDS” (STEMCELL TECHNOLOGIES CANADA INC., priority 2021, published 2024)
Entries after “also recorded” stand apart in the source; their conditions may differ.

Tests used:
[1] = system: human mammary epithelial cells; assay: Human mammary organoid cell lineage balance by flow cytometry; conditions: for cell lineage balance, inhibitors of TGFβ signaling: ~10 μM SB431542, ~200-500 nM A77-01, ~5-25 RepSox; for cell lineage balance, ERBB receptor family ligands: ~10-50 ng/mL AREG, ~10-50 ng/mL EGF, ~50-100 ng/mL NRG1; for cell lineage balance across multiple experiments, ERBB ligands: normalized to control lacking ERBB modulators, mean of 2 experiments
Method: (§4) Cryopreserved pellet A and pellet B were dissociated into a single cell suspension by treatment with 0.25% Trypsin-EDTA for 5 minutes at 37° C. (with intermittent trituration) and then centrifuged at (300 g for 5 minutes). The supernatant was discarded and the pellet was resuspended in a 100 μg/ml DNase solution for 1 minute at room temperature. The resulting cells were passed through a 37 μm strainer to obtain the single cell suspension.
Each well received between 0.5-1 mL of any one of the various culture media described herein.
The plated single cell suspension of mammary epithelial cells formed into organoids that were passaged approximately every 7-days, with 2-3 full medium changes during such 7-day period. To passage the organoids, the Matrigel domes were broken apart by pipetting in pre-warmed 0.25% Trypsin-EDTA, incubating at 37° C. for ˜ 5-15 minutes and pipetting again. The trypsinization reaction was inactivated by washing in an equal volume of Hanks Balanced Salt Solution supplemented with 2% FBS. Depending on the density and size of organoids a 1:2-1:5 split was performed, with the cells seeded as domes, as described above. Alternatively, cells would be strained through a 37 μm strainer to obtain the single cell suspension and seeded in Matrigel domes as described above.
Organoids were formed in media comprising either BMP signaling activator, ˜50 ng/mL BMP2 or ˜50 ng/mL BMP4, and in media comprising either BMP signaling inhibitor, ˜25-200 ng/mL NOGGIN or ˜10-100 nM LDN193189. Just prior to the first passage, the formed organoids were dissociated and the cell lineage balance was analyzed by flow cytometry.
Organoids were formed in media comprising either no ligand of an ERBB receptor family member, or comprising ˜10-50 ng/mL amphiregulin (AREG), ˜10-50 ng/mL epidermal growth factor (EGF), or ˜50-100 ng/mL heregulin/neuregulin 1 (NRG1). Just prior to the first passage, the formed organoids were dissociated and the cell lineage balance was analyzed by flow cytometry.
Just prior to the first passage, the formed organoids were dissociated and the cell lineage balance was analyzed by flow cytometry.

[2] = system: human mammary epithelial cells; assay: Human mammary organoid formation, brightfield microscopy; format: cell-based; conditions: media comprising NOGGIN or LDN193189 alone vs both; successive passages
Method: Fragments of human mammary epithelial cells were isolated from tissue samples obtained from academic collaborators, as follows. Resected tissue samples were minced in a petri dish using a scalpel to cut in a cross-hatched pattern. The minced tissue samples were placed in a dissociation flask in standard culture medium supplemented with BSA, insulin, collagenase and hyaluronidase. The flask was gently shaken overnight on an orbital shaker placed in a 37° C. tissue incubator. The following morning the floating layer of fat was removed by pipette, and the remaining liquid was transferred to a tube and briefly centrifuged at low rpm (˜80 g for 30 seconds). The pellet (A pellet) was set aside and the supernatant was further centrifuged for an incrementally longer period of time and at an incrementally higher rpm (˜200 g for 4 minutes). The pellet (B pellet) was set aside and the supernatant was further centrifuged for a still incrementally longer period of time and at an incrementally higher rpm (˜450 g for 5 minutes).
Cryopreserved pellet A and pellet B were dissociated into a single cell suspension by treatment with 0.25% Trypsin-EDTA for 5 minutes at 37° C. (with intermittent trituration) and then centrifuged at (300 g for 5 minutes). The supernatant was discarded and the pellet was resuspended in a 100 μg/ml DNase solution for 1 minute at room temperature. […]

[3] = system: estrogen receptor localization in mouse mammary organoids; assay: ER localization in mouse mammary organoids after transient TGFβ signaling inhibitor exposure (confocal); format: cell-based; conditions: transient exposure after organoids have formed
Method: (§1) In panel A) (human) and in panel B) (mouse) organoids were formed in respective organoid media of this disclosure, and were then transiently exposed to different inhibitors of TGFβ signaling. Organoids were imaged by confocal microscopy after staining for K8, K14, ER and the nuclear stain DAPI.
(§2) Organoids were recovered from Matrigel by incubating in Corning Cell Recovery Solution for 1 hour with rocking on ice. Organoids were then fixed in 4% paraformaldehyde (PFA) at room temperature for 1 hour and stored in PBS at 4° C. After PFA fixation, antigen retrieval was performed by boiling the organoids in sodium citrate buffer for 20 minutes at 96° C. Organoids were permeabilized in a 0.5% Triton-X-100 solution in PBS overnight at room temperature. Samples were blocked by incubating overnight in a solution of 5% goat serum.
(§3) Following fixation and permeabilization, the organoids were incubated sequentially in primary antibody and secondary antibody solutions (as summarized in the table below) overnight at room temperature. Samples were counterstained in a 2 μg/ml DAPI solution for 20 minutes and dehydrated through stepwise incubations in solutions with increasing methanol concentrations (50%, 80%, then 100% methanol). […]

[4] = system: estrogen receptor localization in human mammary organoids; assay: ER localization in human mammary organoids after transient TGFβ signaling inhibitor exposure (confocal); format: cell-based; conditions: transient exposure after organoids have formed
Method: as §1, §2, §3

[5] = system: human mammary epithelial cells; assay: Human mammary organoids stained for K8/K14, confocal microscopy; format: cell-based; conditions: Day 17 organoids; 50 ng/mL NRG3, 100 ng/mL AMH, 50 ng/mL GM-CSF
Method: as §2
as §3, with “methanol). Organoids were embedded in a solution of 2:1 Benzyl Benzoate-Benzyl alcohol (BABB), transferred to Ibidi glass bottom chamber slides and imaged using a Leica SP8 confocal laser scanning microscope.” for “methanol).”
The effects of modulating signaling through BMP were analyzed across multiple experiments in terms of total cell count among formed organoids (FIG. 9A) and the lineage balance of the cells among formed organoids (FIG. 9B). […]

[6] = system: human mammary epithelial cells; assay: Total cell count among formed human mammary organoids; format: cell-based; conditions: vs control with no modulation of ERBB signaling
Method: as §4
Each well received between 0.5-1 mL of any one of the various culture media described herein. […]
The effects of modulating signaling through an ERBB receptor family member were analyzed across multiple experiments in terms of total cell count among formed organoids (FIG. 13A) and the lineage balance of the cells among formed organoids (FIG. 13B).

Cc1cccc(-c2[nH]ncc2-c2ccnc3ccccc23)n1 [A77-01, reference compound]
cell lineage balance, inhibitors of TGFβ signaling [1]: reduce the proportion of stromal cells while either maintaining or improving the proportions of luminal cells

C#Cc1cccc(Nc2ncnc3cc(OCCOC)c(OCCOC)cc23)c1 [Erlotinib, reference compound]
cell lineage balance, EGF receptor inhibition ([1]; ~100 nM Gefitinib and ~100 nM Erlotinib given together, two donor samples): negligible or no effect on cell lineage balance

c1ccc2c(-c3cnn4cc(-c5ccc(N6CCNCC6)cc5)cnc34)ccnc2c1 [LDN193189, reference compound]
cell lineage balance, BMP signaling modulators ([1]; just prior to first passage, ~50 ng/mL BMP2 or BMP4, ~25-200 ng/mL NOGGIN or ~10-100 nM LDN193189): decreased the number of basal cells while increasing the number of luminal cells
formation of luminal organoids, single vs dual BMP signaling inhibitor [2]: appeared sufficient to bias formation of luminal organoids

Cc1cccc(-c2[nH]ncc2-c2ccc3ncccc3n2)n1 [RepSox]
cell lineage balance, inhibitors of TGFβ signaling [1]: reduce the proportion of stromal cells while either maintaining or improving the proportions of luminal cells
localization of estrogen receptor, mouse organoids [3]: promoted the localization of estrogen receptor within nuclei
localization of estrogen receptor, human organoids [4]: promoted the localization of estrogen receptor within nuclei

NC(=O)c1ccc(-c2nc(-c3ccc4c(c3)OCO4)c(-c3ccccn3)[nH]2)cc1 [SB431542]
cell lineage balance, inhibitors of TGFβ signaling [1]: reduce the proportion of stromal cells while either maintaining or improving the proportions of luminal cells
localization of estrogen receptor, mouse organoids [3]: promoted the localization of estrogen receptor within nuclei
localization of estrogen receptor, human organoids [4]: promoted the localization of estrogen receptor within nuclei

Granulocyte-macrophage Colony Stimulating Factor [GM-CSF]
lineage restriction of organoids formed (K8/K14 staining) [5]: bias the culture of mammary epithelial cells to form basal-restricted organoids; also recorded: Basal-restricted organoids were formed

Neuregulin 3 [NRG3]
lineage restriction of organoids formed (K8/K14 staining) [5]: bias the culture of mammary epithelial cells to form luminal-restricted organoids; also recorded: Luminal-restricted organoids were formed

TGFβ1: ligand of a TGFβ receptor
cell lineage balance, TGFβ receptor ligands ([1]; ~50 ng/mL, just prior to first passage): an overall negative impact on the percentage of luminal and basal cells, while greatly increasing the proportion of stromal cells

epidermal growth factor [EGF, ligand of ERBB1]
cell lineage balance, ERBB receptor family ligands ([1]; just prior to first passage): significantly reduce the number of luminal cells while significantly increasing the number of basal cells
cell lineage balance across multiple experiments, ERBB ligands [1]: the greatest reduction in luminal cells and the greatest increase in basal cells
total cell count among formed organoids, ERBB modulators [6]: highest mitogenic activity

heregulin/neuregulin 1 [NRG1]
cell lineage balance, ERBB receptor family ligands ([1]; just prior to first passage): a minor or no effect on cell lineage balance
cell lineage balance across multiple experiments, ERBB ligands [1]: a higher percentage of luminal cells and a reduction in the percentage of basal cells
